In ChEMBL document CHEMBL1201862, “PubChem BioAssay data set” (2004):
“And” between values parts separate entries of the source, which are not always exact repeats. Equal entries are not always repeated.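 All cell lines were grown in 96-well plates and treated with compound for 48 hours. Here, GI50 denotes the concentration required for 50% inhibition of growth.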 The source made the active and inactive calls. Cut-off read from the data, not from the text of the source: active = GI50 up to about 1.1 µM and inactive = higher.

What was measured:
Assay in all cases: NCI-60 cell line screen, 48 h
[1] = tested on: A549
[2] = tested on: DU-145
[3] = tested on: EKVX
[4] = tested on: HCT-15
[5] = tested on: HOP-62
[6] = tested on: M14
[7] = tested on: MCF7
[8] = tested on: MDA-MB-231
[9] = tested on: MDA-MB-435
[10] = tested on: NCI-H23
[11] = tested on: NCI-H522
[12] = tested on: OVCAR-3
[13] = tested on: OVCAR-5
[14] = tested on: PC-3
[15] = tested on: SK-MEL-5
[16] = tested on: SN12C
[17] = tested on: SW-620
[18] = tested on: UACC-62
[19] = tested on: UO-31
[20] = tested on: SR

| Compound | GI50 [1] | GI50 [2] | GI50 [3] | GI50 [4] | GI50 [5] | GI50 [6] | GI50 [7] | GI50 [8] | GI50 [9] | GI50 [10] | GI50 [11] | GI50 [12] | GI50 [13] | GI50 [14] | GI50 [15] | GI50 [16] | GI50 [17] | GI50 [18] | GI50 [19] | GI50 [20] |
| --- | --- | --- | --- | --- | --- | --- | --- | --- | --- | --- | --- | --- | --- | --- | --- | --- | --- | --- | --- | --- |
| Oc1c(OCc2nnc(CCCCCCCCc3nnc(COc4ccc5ccccc5c4O)n3Nc3ccccc3)n2Nc2ccccc2)ccc2ccccc12 | 6.46 µM (inactive) | 14.6 µM (inactive) | 11.6 µM (inactive) | 11.4 µM | 0.261 µM (active) | 1.97 µM (inactive) | 3.52 µM (inactive) | 8.95 µM (inactive) | 2.46 µM (inactive) | 8.69 µM (inactive) | 7.08 µM (inactive) | 8.02 µM (inactive) | 5.47 µM (inactive) | 2.1 µM (inactive) | 1.29 µM (inactive) | 13.9 µM (inactive) | 10.4 µM (inactive) | 0.671 µM (active) | 2.58 µM (inactive) | – |
| O=C1CCCc2c1c1c(n2Cc2ccccc2)-c2ccccc2C1=O | 23 µM (inactive) | 28.9 µM (inactive) | 27.7 µM (inactive) | 15 µM | 25.5 µM (inactive) | 21.3 µM (inactive) | 29 µM (inactive) | 15.4 µM (inactive) | 18.4 µM (inactive) | 14.9 µM (inactive) | 12.3 µM (inactive) | 16 µM (inactive) | 32.1 µM (inactive) | 27.4 µM (inactive) | 18.7 µM (inactive) | 19.3 µM (inactive) | 32.3 µM (inactive) | 17.9 µM (inactive) | 23.7 µM (inactive) | – |
| CCC/C(Cl)=N\OC(=O)Nc1ccc(F)c([N+](=O)[O-])c1 | 24.7 µM (inactive) | 14.7 µM (inactive) | 16.2 µM (inactive) | 16.9 µM | 18.4 µM (inactive) | 14.7 µM (inactive) | 25.5 µM (inactive) | 20.3 µM (inactive) | 16.2 µM (inactive) | 12.9 µM (inactive) | 1.79 µM (inactive) | 15.6 µM (inactive) | 20.4 µM (inactive) | 15.2 µM (inactive) | 16.7 µM (inactive) | 27.2 µM (inactive) | 4.8 µM (inactive) | 18.7 µM (inactive) | 13.7 µM (inactive) | – |
| CN1C(=O)C(O)CC1c1cccc(C(F)(F)F)c1 (configuration not stated) | > 100 µM (inactive) | > 100 µM (inactive) | > 100 µM (inactive) | > 100 µM | > 100 µM (inactive) | > 100 µM (inactive) | > 100 µM (inactive) | > 100 µM (inactive) | > 100 µM (inactive) | > 100 µM (inactive) | > 100 µM (inactive) | > 100 µM (inactive) | > 100 µM (inactive) | > 100 µM (inactive) | > 100 µM (inactive) | > 100 µM (inactive) | > 100 µM (inactive) | > 100 µM (inactive) | > 100 µM (inactive) | – |
| COC(=O)c1sc(=S)sc1SCc1ccc(CSc2sc(=S)sc2C(=O)OC)cc1 | > 100 µM (inactive) | > 100 µM (inactive) | > 100 µM (inactive) | > 100 µM | > 100 µM (inactive) | > 100 µM (inactive) | > 100 µM (inactive) | > 100 µM (inactive) | > 100 µM (inactive) | > 100 µM (inactive) | > 100 µM (inactive) | > 100 µM (inactive) | > 100 µM (inactive) | > 100 µM (inactive) | > 100 µM (inactive) | > 100 µM (inactive) | > 100 µM (inactive) | > 100 µM (inactive) | > 100 µM (inactive) | – |
| Cc1nc2cc(F)c(F)cc2[nH]c1=O | > 100 µM (inactive) | > 100 µM (inactive) | 67.1 µM (inactive) | > 100 µM | > 100 µM (inactive) | > 100 µM (inactive) | > 100 µM (inactive) | > 100 µM (inactive) | > 100 µM (inactive) | > 100 µM (inactive) | – | > 100 µM (inactive) | > 100 µM (inactive) | > 100 µM (inactive) | > 100 µM (inactive) | > 100 µM (inactive) | > 100 µM (inactive) | > 100 µM (inactive) | > 100 µM (inactive) | – |
| Cc1ccc(S(=O)(=O)SC/C=C\CSS(=O)(=O)c2ccc(C)cc2)cc1 | 31.5 µM (inactive) and 35.7 µM (inactive) | 16.4 µM (inactive) | > 92.7 µM (inactive) and 53.6 µM (inactive) | – | 49.2 µM (inactive) and 35.9 µM (inactive) | 13.8 µM (inactive) and 17.4 µM (inactive) | 3.51 µM (inactive) | 16.4 µM (inactive) | 5.82 µM (inactive) | 16.6 µM (inactive) and 12.4 µM (inactive) | – | 24.4 µM (inactive) and 16 µM (inactive) | – | 19.9 µM (inactive) | 27.6 µM (inactive) and 29.3 µM (inactive) | 18.8 µM (inactive) and 9.71 µM (inactive) | – | 17.6 µM (inactive) and 20.9 µM (inactive) | 55.2 µM (inactive) | – |
| Cc1cc2occ(S(=O)(=O)NC(=O)Nc3ccc(Cl)cc3)c(=O)c2c(=O)o1 | > 100 µM (inactive) | > 100 µM (inactive) | > 100 µM (inactive) | 9.18 µM | > 100 µM (inactive) | > 100 µM (inactive) | > 100 µM (inactive) | > 100 µM (inactive) | > 100 µM (inactive) | > 100 µM (inactive) | > 100 µM (inactive) | > 100 µM (inactive) | > 100 µM (inactive) | > 100 µM (inactive) | > 100 µM (inactive) | > 100 µM (inactive) | > 100 µM (inactive) | 23.4 µM (inactive) | > 100 µM (inactive) | – |
| CCOC(=O)CN1C(=O)NC(C)(c2ccccc2)C1=O (configuration not stated) | > 100 µM (inactive) | > 100 µM (inactive) | > 100 µM (inactive) | > 100 µM | > 100 µM (inactive) | > 100 µM (inactive) | > 100 µM (inactive) | > 100 µM (inactive) | > 100 µM (inactive) | > 100 µM (inactive) | > 100 µM (inactive) | > 100 µM (inactive) | > 100 µM (inactive) | > 100 µM (inactive) | > 100 µM (inactive) | > 100 µM (inactive) | > 100 µM (inactive) | > 100 µM (inactive) | > 100 µM (inactive) | – |
| Nc1nc(Cl)cc(NCC2(CO)CC=CC2)n1 | > 100 µM (inactive) | > 100 µM (inactive) | 71 µM (inactive) | > 100 µM | > 100 µM (inactive) | – | > 100 µM (inactive) | > 100 µM (inactive) | > 100 µM (inactive) | – | 68.7 µM (inactive) | 80.2 µM (inactive) | > 100 µM (inactive) | > 100 µM (inactive) | 46.3 µM (inactive) | > 100 µM (inactive) | > 100 µM (inactive) | > 100 µM (inactive) | > 100 µM (inactive) | – |
| C1=CC2(C=CC13O[C@H](C1CCCCC1)[C@@H](C1CCCCC1)O3)O[C@H](C1CCCCC1)[C@@H](C1CCCCC1)O2 | > 50 µM (inactive) | > 50 µM (inactive) | – | > 50 µM | > 50 µM (inactive) | > 50 µM (inactive) | > 50 µM (inactive) | > 50 µM (inactive) | > 50 µM (inactive) | > 50 µM (inactive) | – | > 50 µM (inactive) | > 50 µM (inactive) | > 50 µM (inactive) | > 50 µM (inactive) | > 50 µM (inactive) | > 50 µM (inactive) | > 50 µM (inactive) | > 50 µM (inactive) | > 50 µM (inactive) |
| CC1(C)CC(=O)c2c(nc3c(ccc4ccccc43)c2-c2ccc(NC(=O)CCCCC(=O)Nc3ccc(-c4c5c(nc6c4ccc4ccccc46)CC(C)(C)CC5=O)cc3)cc2)C1 | 53.7 µM (inactive) | 36.1 µM (inactive) | 21.2 µM (inactive) | 27.7 µM | 32.7 µM (inactive) | 32.3 µM (inactive) | 32.2 µM (inactive) | 19.3 µM (inactive) | 26.2 µM (inactive) | – | 29.5 µM (inactive) | 25.6 µM (inactive) | 30.9 µM (inactive) | 27.4 µM (inactive) | 32.1 µM (inactive) | 33.1 µM (inactive) | 38.6 µM (inactive) | – | 19.5 µM (inactive) | – |
| COCO[C@@H]1C[C@H]2C(=O)N(COC)c3ccccc3C(=O)N2C1 | > 100 µM (inactive) | > 100 µM (inactive) | > 100 µM (inactive) | > 100 µM | > 100 µM (inactive) | > 100 µM (inactive) | > 100 µM (inactive) | > 100 µM (inactive) | > 100 µM (inactive) | > 100 µM (inactive) | > 100 µM (inactive) | – | > 100 µM (inactive) | > 100 µM (inactive) | > 100 µM (inactive) | > 100 µM (inactive) | > 100 µM (inactive) | > 100 µM (inactive) | > 100 µM (inactive) | – |
| CCCC/N=C(/c1ccccc1)N1CCOCC1 | – | > 100 µM (inactive) | > 100 µM (inactive) | > 100 µM | > 100 µM (inactive) | > 100 µM (inactive) | > 100 µM (inactive) | > 100 µM (inactive) | > 100 µM (inactive) | > 100 µM (inactive) | – | > 100 µM (inactive) | > 100 µM (inactive) | > 100 µM (inactive) | > 100 µM (inactive) | > 100 µM (inactive) | > 100 µM (inactive) | > 100 µM (inactive) | 97.7 µM (inactive) | > 100 µM (inactive) |
| O=C(O)CCC(/N=C(\C(=N\C(CCC(=O)O)C(=O)O)c1ccccc1)c1ccccc1)C(=O)O (configuration not stated) | > 100 µM (inactive) | > 100 µM (inactive) | > 100 µM (inactive) | > 100 µM | > 100 µM (inactive) | > 100 µM (inactive) | > 100 µM (inactive) | > 100 µM (inactive) | > 100 µM (inactive) | > 100 µM (inactive) | – | > 100 µM (inactive) | > 100 µM (inactive) | > 100 µM (inactive) | – | > 100 µM (inactive) | > 100 µM (inactive) | > 100 µM (inactive) | > 100 µM (inactive) | > 100 µM (inactive) |
